# Laboratory results from patent publication US8367607B2, “Oxyntomodulin peptide analogue” (Eli Lilly and Company, priority 2009, dated 2013).
# Marks after values point to notes of the source that are not given here.
# How the values were obtained:
# [1] = Food intake, body weight and body composition in DIO mice, Study 1: two week treatment; assay type: in vivo, diet-induced obese (DIO) C57BL/6 mice
# Method: Three to four months old male diet-induced obese (DIO) C57BL/6 mice are used. Animals are individually housed in a temperature-controlled (24° C.) facility with a 12 hour light/dark cycle (lights on 22:00), and have free access to food and water. […] Body weight and the weight of food plus the hopper are measured at the same time. Food consumed in the preceding 24 hours is calculated by subtracting current weight of food plus the hopper from that of the previous day. Absolute changes in body weight are calculated by subtracting the body weight of the animal prior to the first injection. […] Fat free mass is calculated by subtracting fat mass from total body weight.
# [2] = Intraperitoneal glucose tolerance test after 4-week treatment in DIO mice; assay type: in vivo; conditions: for Glucose AUC (0 to 120 min), intraperitoneal glucose load, MEAN: after 4 week treatment, DIO mice
# Method: (§1) Fifty-six hours after the last injection as described in Example 7 (Study 1) in DIO mice, mice are fasted for 16 hours prior to the start of the glucose tolerance test. At time 0, animals are given 2 g/kg dextrose by oral gavage or intraperitoneal (IP) injection. Blood is collected by tail vein bleeding at 0, 15, 30, 60 and 120 minutes after glucose challenge. Glucose concentration is measured by glucometer.
# An intraperitoneal glucose tolerance test (IPGTT) is performed on day 29, 3 days after the last injection as described in Example 7 (Study 2) in DIO mice.
# [3] = Food intake, body weight, body composition, calorimetry and plasma markers in DIO mice, Study 2: four week treatment; assay type: in vivo, diet-induced obese (DIO) C57BL/6 mice
# Method: Three to four months old male diet-induced obese (DIO) C57BL/6 mice are used. Animals are individually housed in a temperature-controlled (24° C.) facility with a 12 hour light/dark cycle (lights on 22:00), and have free access to food and water. After 2 weeks acclimation to the facility, mice are randomized to treatment groups (n=8-10/group), each group having similar mean body weight and fat mass. Before the experiment, mice are subcutaneously (sc) injected with vehicle solution and weighed for 2 days to acclimate them to the procedures.
# Body weight and the weight of food plus the hopper are measured at the same time. Food consumed in the preceding 24 hours is calculated by subtracting current weight of food plus the hopper from that of the previous day. Absolute changes in body weight are calculated by subtracting the body weight of the animal prior to the first injection. On days 1, 14 and 28 total fat mass is measured by nuclear magnetic resonance (NMR) using an Echo Medical System (Houston, Tex.) instrument. Fat free mass is calculated by subtracting fat mass from total body weight.
# [4] = Acute effects on plasma FGF21, triglyceride levels and hepatic gene expression in DIO mice; assay type: in vivo, diet-induced obese C57BL/6 mice; conditions: single sc injection 22.5 nmole/kg
# Method: The day before the study, mice are randomized to treatment groups (N=7/group), each group having similar mean body weight. […] Food is removed at the time of injection of peptide or vehicle. The following morning (approximately 10 AM), the animals are sacrificed to collect plasma and liver tissue. Glucose and triglyceride concentrations are measured using a Hitachi blood chemistry analyzer. Gene expression is determined by RT-PCR. Malonyl-CoA and acetyl-CoA levels are measured by HPLC.
# [5] = Oral glucose tolerance test (OGTT) in ob/ob mice; assay type: in vivo; conditions: single injection 7.5 nmole/kg
# Method: Two to three months old male ob/ob mice are individually housed in a temperature-controlled (24° C.) facility with a 12 hour light/dark cycle (lights on 2200 hours), and have free access to the standard chow and water. After at least 2 weeks of acclimation to the facility, 3-hours fasting blood glucose is measured by tail vein bleeding at 9 AM. Mice with blood glucose under 180 mg/dL are not used. Remaining animals are randomized to treatment groups (N=6-7/group), each group having similar average blood glucose level. The mice are given access to food until the time of injection. […] Food is removed at the time of injection. An OGTT (Table 7) or IPGTT (Table 8) is performed 16 hours after the peptide injection. At time 0, animals are given 2 g/kg dextrose by oral gavage (Table 7) or intraperitoneal injection (Table 8). Blood is collected by tail vein bleeding at 0, 15, 30, 60 and 120 minutes after glucose challenge. Glucose concentration is measured by glucometer.
# [6] = Intraperitoneal glucose tolerance test in lean mice; assay type: in vivo, C57BL/6 mice; conditions: 16 hours before test
# Method: Nine week old male C57BL/6 mice are used in the study Animals are randomized into groups based on fed body weight. […] Food is removed at the time of injection of peptide or vehicle. At time 0, animals are given 2 g/kg dextrose by IP injection. Blood is collected by tail vein bleeding at 0, 3, 6, 12 and 30 minutes after glucose challenge. Glucose concentration is measured by glucometer. Insulin is measure by Mesoscale.
# [7] = Oral glucose tolerance test after 2-week treatment in DIO mice; assay type: in vivo; conditions: for Glucose AUC (0 to 120 min), oral glucose load, MEAN: DIO mice
# Method: as §1
# [8] = high dose, completion of 4-week study
substance,measurement,setting,value
His-(Aib)-Gln-Gly-Thr-Phe-Thr-Ser-Asp-Tyr-Ser-Lys-Tyr-Leu-Asp-Ser-Lys-Lys-Ala-Gln-Glu-Phe-Val-Gln-Trp-Leu-Leu-Asn-(Aib)-Gly-Arg-Asn-Arg-Asn-Asn-Ile-Ala-Cys(20 kDa PEG)-Cys(20 kDa PEG),"cumulative weight loss, reduction compared to the vehicle group","[1]; 7.5 nmole/kg every 3 days, 2 weeks",about 9%
same,Fat mass loss (g fat weight change for 14 days),[1]; 7.5 nmole/kg sc every 3 days,-2.2 ± 0.3 g
same,Overall weight loss (g weight change for 14 days),[1]; 7.5 nmole/kg sc every 3 days,-3.1 ± 0.4 g
same,Total food intake (g total for 14 days),[1]; 7.5 nmole/kg sc every 3 days,35.0 ± 0.8 g
same,vehicle controlled cumulative weight loss,"[1]; 15 nmole/kg every 3 days, 2 weeks",18%
same,Fat mass loss (g fat weight change for 14 days),[1]; 15 nmole/kg sc every 3 days,-3.9 ± 0.7 g
same,Overall weight loss (g weight change for 14 days),[1]; 15 nmole/kg sc every 3 days,-6.1 ± 0.9 g
same,Total food intake (g total for 14 days),[1]; 15 nmole/kg sc every 3 days,29.8 ± 1.5 g
same,cumulative food intake reduction compared to the vehicle group,"[1]; 15 nmole/kg, end of 2-week study",27%
same,effect on food intake and body weight,"[1]; 7.5 and 15 nmole/kg, 2 weeks",dose-dependent reduction
same,"Glucose AUC (0 to 120 min), intraperitoneal glucose load, MEAN",[2]; 6.7 nmole/kg,30073 mg·min/dL
same,"Glucose AUC (0 to 120 min), intraperitoneal glucose load, MEAN",[2]; 20.0 nmole/kg,19264* mg * min/dL
same,blood glucose at all time points before and after IP glucose challenge versus vehicle,"[2]; high dose of analogue, both doses of positive control, day 29",significantly lowered
same,glucose levels after IP glucose challenge,"[2]; low dose, day 29",little effect
same,Total food intake (g total for the first 14 days),[3]; 6.7 nmole/kg sc every 3 days,36.0 ± 1.1 g
same,Fat mass loss (g fat weight change for 28 days),[3]; 6.7 nmole/kg sc every 3 days,-0.7 ± 0.2 g
same,Overall weight loss (g weight change for 28 days),[3]; 6.7 nmole/kg sc every 3 days,-2.0 ± 0.4 g
same,weight loss compared with 22.5 nmole/kg dose of the positive control,[3]; 20 nmole/kg,significantly greater weight loss
same,Total food intake (g total for the first 14 days),[3]; 20.0 nmole/kg sc every 3 days,26.1 ± 1.4 g
same,Fat mass loss (g fat weight change for 28 days),[3]; 20.0 nmole/kg sc every 3 days,-7.5 ± 0.7 g
same,Overall weight loss (g weight change for 28 days),[3]; 20.0 nmole/kg sc every 3 days,-11.1 ± 0.9 g
same,"maximal weight reduction, of the initial body weight","[3]; 20 nmole/kg, after 15 days of treatment",about 25%
same,increase of averaged 24-hour energy expenditure versus vehicle,"[3]; 20 nmole/kg, indirect calorimetry, day 21",18%
same,leptin levels versus vehicle treated controls,[3]; [8],significantly reduced
same,plasma adiponectin levels versus vehicle treated controls,[3]; [8],statistically significantly difference
same,cumulative food intake,[3]; high doses (20 nmole/kg),significantly decreased
same,body weight versus positive control group,[3]; lower doses (6.7 nmole/kg),decreased body weight to a similar degree as seen in the positive control group
same,decrease of liver acetyl-CoA concentration versus vehicle control,[4]; DIO mice,39%
same,decrease of liver malonyl-CoA concentration versus vehicle control,[4]; DIO mice,63%
same,decrease of hepatic ChREBP gene expression,[4]; RT-PCR,52%
same,decrease of hepatic PCSK9 gene expression,[4]; RT-PCR,61%
same,increase of hepatic pgc-1a gene expression,[4]; RT-PCR,7 fold
same,induction of hepatic FGF21 gene expression,[4]; RT-PCR,17 fold
same,increase in circulating FGF21,[4]; plasma,6 fold
same,blood glucose in ob/ob mice,[5],normalized blood glucose
same,blood glucose levels at all time points after glucose challenge versus vehicle control group,[5]; ob/ob mice,significantly lower
same,"Glucose AUC (0 to 30 min), IPGTT in lean mice, MEAN",[6]; 5 nmole/kg,7059 mg·min/dL
same,"Insulin AUC (0 to 30 min), IPGTT in lean mice, MEAN",[6]; 5 nmole/kg,30.67* ng * min/mL
same,"Glucose AUC (0 to 30 min), IPGTT in lean mice, MEAN",[6]; 15 nmole/kg,6103* mg * min/dL
same,"Insulin AUC (0 to 30 min), IPGTT in lean mice, MEAN",[6]; 15 nmole/kg,45.26* ng * min/mL
same,"Glucose AUC (0 to 120 min), oral glucose load, MEAN",[7]; 7.5 nmole/kg,17722* mg * min/dL
same,"Glucose AUC (0 to 120 min), oral glucose load, MEAN",[7]; 15 nmole/kg,17518* mg * min/dL
same,blood glucose at all time points before and after the oral glucose challenge versus vehicle,[7]; all doses,significantly lowered
